Measured values reported in US10426850B2, “Collagen mimetic peptides for targeting collagen strands for in vitro and in vivo imaging and therapeutic use” (The Johns Hopkins University, priority 2011, dated 2019).
Entries after “also recorded” stand apart in the source; their conditions may differ.

Columns and labels:
[1] = biological target: T1, type I collagen films (Rattus norvegicus, UniProt P02454+P02466); test: Quantification of CF(GPO)9 bound on type I collagen films; type: binding; details: UV+, collagenase digestion, standard curve
T1 construct: Collagen solution (200 μL, 3.71 mg/mL, type I rat tail, BD Science); purchased BD Science; host or cells: rat tail
Protocol: Quantification of CF(GPO)9 (SEQ ID NO: 10) bound on type I collagen films. Following photo-induced binding, CMP-bound collagen films (e.g. the UV+ group of FIG. 10A) were digested with 200 μL of collagenase (Sigma, C0130) solutions (1 mg/mL) in TESCA buffer (50 mM TES buffer with 1.36 mM CaCl2, pH 7.4) for 1 hr at 37° C. The digested solutions were directly used for fluorescence measurement (ex: 489 nm, em: 533 nm). For the standard curve, a series of solutions containing known amounts of CF^NB(GPO)9 (SEQ ID NO: 4) (0 to 0.35 nmol) were applied to blank collagen films and air-dried, followed by collagenase digestion and fluorescence measurement as described above. The amount of bound CF(GPO)9 (SEQ ID NO: 10) was determined by comparing the fluorescence intensity of the digested collagen/CMP solutions with the standard curve, and the binding density was determined by dividing the amount bound by the area of the well. The experiment was performed in triplicate.

[2] = biological target: T2, MMP-1 digested type I collagen (Rattus norvegicus, UniProt P02454+P02466); test: Staining of SDS-PAGE gels using photo-decaged CMP; type: binding; details: 6 μM, UV-activation
T2 construct: purchased BD Science (collagen); EMD Millipore (ProMMP-1); host or cells: rat tail; digested in house
Protocol: Staining of SDS-PAGE gels using photo-decaged CF(GPO)9 (SEQ ID NO: 10). MMP-1 digested type I collagen (3.5 μg) was separated by SDS-PAGE (4-12% polyacrylamide gel) under non-reducing condition, along with unstained protein ladder (Life technologies, LC5801). After washing, the gel was soaked in 6 μM CF^NB(GPO)9 (SEQ ID NO: 4) (or CF^SG9P9O9 (SEQ ID NO: 5)) in 1×PBS solution, followed by exposure to 365 nm UV light for 15 min, and 2.5 hr of staining. The gel was washed with deionized water and scanned using Typhoon 9410 Imager (GE Healthcare) with 488 nm fluorescence channel. Afterwards, the protein gel was stained by coomassie brilliant blue and imaged by Gel Doc EQ system (BioRad).

[3] = test system: streptococcal collagen-like protein Scl2.28CL; test: SDS-PAGE staining of collagen-like protein Scl2.28CL; type: binding, Streptococcus pyogenes; details: 6 μM, heat activated, 2.5 μg, gel fixed with glutaraldehyde
Protocol: To prepare MMP-1 cleaved collagen chain fragments, proMMP-1 (1 μg) was activated by p-aminophenylmercuric acetate (1.1 mM) in 132.5 μL of TNC buffer (50 mM Tris-HCl, 0.15 M NaCl, 5 mM CaCl2, 0.02% NaN3, pH 7.5) at 37° C. for 3 hr, after which type I collagen (62.6 μg) was added to the activated MMP-1 solution and incubated at room temperature for at least 3 days. To obtain the cell lysate, confluent HUVECs cultured in EGM-2 media at 37° C. were lysed with lysis buffer (25 mM Tris-HCl, 0.5% Triton X-100, 200 mM NaCl, 2 mM EDTA, phosphatase and protease inhibitors; Roche Applied Science). The lysate solution was spun at 15,000 g for 15 min and the supernatant was collected. The recombinant streptococcal collagen-like protein Scl2.28CL was expressed and characterized following the methods introduced by Mohs et al. (J. Biol. Chem. 282, 29757-29765 (2007)).
(§1) SDS-PAGE staining and imaging. Proteins were resolved on NuPAGE® Novex 4-12% bis-tris gels under denaturating conditions using an XCell SureLock™ Mini-Cell electrophoresis system (Life Technologies). […] The fluorescence intensities of the protein bands were quantified using GE ImageQuant™ TL software. After fluorescence imaging, all gels were further stained with coomassie brilliant blue (CB) G-250 (Bio-Rad) for 2-3 hr followed by washing, and imaging under white light illumination using a Gel Doc EQ system (BioRad).

[4] = test system: fibronectin and laminin; test: SDS-PAGE staining by heat activated fluorescent CMP, other ECM proteins; type: binding, bovine (fibronectin), murine (laminin); details: 6 μM, 2 μg protein per lane
From the text: Acid soluble rat-tail type I collagen, bovine type II collagen, and mouse type IV collagen were purchased from BD Bioscience (San Jose, Calif.). Complement component C1q from human serum, fibronectin from bovine plasma, and laminin from Engelbreth-Holm-Swarm murine sarcoma basement membrane were purchased from Sigma-Aldrich. ProMMP-1, and p-aminophenylmercuric acetate were acquired from EMD millipore. Human umbilical vein endothelial cells (HUVECs) and EGM-2 cell growth media were obtained from Lonza (Walkersville, Md.). Precast NuPAGE® Novex 4-12% Bis-Tris Gel (1.0 mm, 12 well), Novex® Sharp unstained protein standard, and SDS-PAGE running buffer, sample buffer, and other SDS-PAGE reagents were purchased from Life Technologies.
as §1, with “Technologies). NuPAGE® MOPS SDS running buffer containing 50 mM MOPS, 50 mM Tris Base, 0.1% SDS, and 1 mM EDTA (pH 7.7) was used.” for “Technologies).”

T2 sequence (P02454 152-942 limits assumed): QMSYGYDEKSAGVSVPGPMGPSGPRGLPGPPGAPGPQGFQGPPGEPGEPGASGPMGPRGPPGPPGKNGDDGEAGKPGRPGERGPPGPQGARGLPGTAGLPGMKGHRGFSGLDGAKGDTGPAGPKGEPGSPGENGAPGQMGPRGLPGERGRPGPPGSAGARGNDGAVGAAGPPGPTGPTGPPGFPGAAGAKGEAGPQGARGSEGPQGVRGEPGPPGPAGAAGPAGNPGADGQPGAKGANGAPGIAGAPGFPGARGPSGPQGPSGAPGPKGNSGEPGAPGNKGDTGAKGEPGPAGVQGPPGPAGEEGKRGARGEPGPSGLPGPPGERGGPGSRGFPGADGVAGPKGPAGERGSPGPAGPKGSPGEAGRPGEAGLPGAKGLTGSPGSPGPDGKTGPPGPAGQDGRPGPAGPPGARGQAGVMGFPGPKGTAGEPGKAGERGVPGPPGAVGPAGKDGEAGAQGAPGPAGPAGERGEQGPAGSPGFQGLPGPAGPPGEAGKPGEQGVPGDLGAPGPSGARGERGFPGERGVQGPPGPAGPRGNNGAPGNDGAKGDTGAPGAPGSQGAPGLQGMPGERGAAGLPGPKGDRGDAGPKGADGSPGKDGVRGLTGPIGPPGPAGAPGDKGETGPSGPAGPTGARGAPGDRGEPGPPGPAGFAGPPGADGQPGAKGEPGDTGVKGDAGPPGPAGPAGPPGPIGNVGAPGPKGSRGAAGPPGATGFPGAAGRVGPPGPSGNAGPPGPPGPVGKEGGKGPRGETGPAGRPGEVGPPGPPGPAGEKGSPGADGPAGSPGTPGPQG
T2 sequence (P02454 943-1207 limits assumed): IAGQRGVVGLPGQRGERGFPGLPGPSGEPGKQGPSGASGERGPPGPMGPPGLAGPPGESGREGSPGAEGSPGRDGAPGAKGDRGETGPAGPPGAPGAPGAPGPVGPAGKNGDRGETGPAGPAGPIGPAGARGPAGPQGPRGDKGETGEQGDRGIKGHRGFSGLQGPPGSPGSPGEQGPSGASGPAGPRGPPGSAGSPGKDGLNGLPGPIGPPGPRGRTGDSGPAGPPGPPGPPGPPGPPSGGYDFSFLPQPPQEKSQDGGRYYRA
T2 sequence (P02466 86-871 limits assumed): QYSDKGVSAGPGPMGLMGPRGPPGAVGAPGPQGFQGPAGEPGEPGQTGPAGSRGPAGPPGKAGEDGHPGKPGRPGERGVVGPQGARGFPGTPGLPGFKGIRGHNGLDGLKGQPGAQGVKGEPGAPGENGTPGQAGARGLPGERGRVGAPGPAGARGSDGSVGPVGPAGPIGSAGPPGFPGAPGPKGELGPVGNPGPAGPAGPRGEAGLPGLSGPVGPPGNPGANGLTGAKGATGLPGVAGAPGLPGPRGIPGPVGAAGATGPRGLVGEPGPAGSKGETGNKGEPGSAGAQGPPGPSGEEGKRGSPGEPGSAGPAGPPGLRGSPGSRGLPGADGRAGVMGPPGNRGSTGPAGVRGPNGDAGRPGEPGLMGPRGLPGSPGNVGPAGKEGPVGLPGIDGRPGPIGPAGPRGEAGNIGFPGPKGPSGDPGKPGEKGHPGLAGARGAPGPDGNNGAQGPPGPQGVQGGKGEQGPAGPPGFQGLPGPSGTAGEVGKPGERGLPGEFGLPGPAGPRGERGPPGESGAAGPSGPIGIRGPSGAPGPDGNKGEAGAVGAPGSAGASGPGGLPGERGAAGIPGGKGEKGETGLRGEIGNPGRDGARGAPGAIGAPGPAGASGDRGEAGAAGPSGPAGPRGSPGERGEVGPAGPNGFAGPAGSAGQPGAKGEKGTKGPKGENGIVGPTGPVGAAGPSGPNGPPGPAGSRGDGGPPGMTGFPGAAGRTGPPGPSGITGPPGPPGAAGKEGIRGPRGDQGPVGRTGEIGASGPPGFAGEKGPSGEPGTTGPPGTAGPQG
T2 sequence (P02466 872-1125 limits assumed): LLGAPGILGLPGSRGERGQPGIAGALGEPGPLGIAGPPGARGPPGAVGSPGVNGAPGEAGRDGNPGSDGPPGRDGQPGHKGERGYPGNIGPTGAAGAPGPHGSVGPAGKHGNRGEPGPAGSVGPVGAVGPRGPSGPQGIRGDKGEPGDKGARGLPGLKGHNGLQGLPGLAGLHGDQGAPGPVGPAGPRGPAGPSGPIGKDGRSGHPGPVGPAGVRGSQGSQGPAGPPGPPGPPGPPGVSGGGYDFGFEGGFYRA
T1 sequence (P02454 152-1207 limits assumed): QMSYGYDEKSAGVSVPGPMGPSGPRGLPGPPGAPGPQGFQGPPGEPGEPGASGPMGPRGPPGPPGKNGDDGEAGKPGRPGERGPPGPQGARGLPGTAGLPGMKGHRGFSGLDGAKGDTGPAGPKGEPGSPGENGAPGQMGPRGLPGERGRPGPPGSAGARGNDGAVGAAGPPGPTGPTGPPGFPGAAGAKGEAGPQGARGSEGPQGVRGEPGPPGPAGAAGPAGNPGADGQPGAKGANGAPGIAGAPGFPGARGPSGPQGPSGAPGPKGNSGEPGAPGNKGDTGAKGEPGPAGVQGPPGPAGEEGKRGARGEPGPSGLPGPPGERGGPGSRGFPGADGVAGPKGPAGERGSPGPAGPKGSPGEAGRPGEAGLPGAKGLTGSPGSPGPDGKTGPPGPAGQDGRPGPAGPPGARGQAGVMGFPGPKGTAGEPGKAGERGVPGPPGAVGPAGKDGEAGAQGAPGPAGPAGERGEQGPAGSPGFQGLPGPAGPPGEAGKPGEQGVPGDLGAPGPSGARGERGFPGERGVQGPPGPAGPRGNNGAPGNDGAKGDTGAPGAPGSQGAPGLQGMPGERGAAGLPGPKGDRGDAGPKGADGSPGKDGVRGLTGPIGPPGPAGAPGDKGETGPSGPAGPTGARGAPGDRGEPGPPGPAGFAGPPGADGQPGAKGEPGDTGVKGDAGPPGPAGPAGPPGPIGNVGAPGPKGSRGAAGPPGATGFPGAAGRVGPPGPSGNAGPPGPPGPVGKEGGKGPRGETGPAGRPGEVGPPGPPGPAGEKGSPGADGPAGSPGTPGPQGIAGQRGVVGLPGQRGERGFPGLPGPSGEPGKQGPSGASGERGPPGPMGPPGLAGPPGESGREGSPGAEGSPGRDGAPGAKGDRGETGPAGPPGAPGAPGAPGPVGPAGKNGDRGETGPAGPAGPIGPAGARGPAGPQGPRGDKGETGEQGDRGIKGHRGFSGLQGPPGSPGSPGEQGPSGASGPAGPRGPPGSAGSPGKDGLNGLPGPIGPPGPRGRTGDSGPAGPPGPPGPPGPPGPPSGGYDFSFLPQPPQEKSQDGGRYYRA
T1 sequence (P02466 86-1125 limits assumed): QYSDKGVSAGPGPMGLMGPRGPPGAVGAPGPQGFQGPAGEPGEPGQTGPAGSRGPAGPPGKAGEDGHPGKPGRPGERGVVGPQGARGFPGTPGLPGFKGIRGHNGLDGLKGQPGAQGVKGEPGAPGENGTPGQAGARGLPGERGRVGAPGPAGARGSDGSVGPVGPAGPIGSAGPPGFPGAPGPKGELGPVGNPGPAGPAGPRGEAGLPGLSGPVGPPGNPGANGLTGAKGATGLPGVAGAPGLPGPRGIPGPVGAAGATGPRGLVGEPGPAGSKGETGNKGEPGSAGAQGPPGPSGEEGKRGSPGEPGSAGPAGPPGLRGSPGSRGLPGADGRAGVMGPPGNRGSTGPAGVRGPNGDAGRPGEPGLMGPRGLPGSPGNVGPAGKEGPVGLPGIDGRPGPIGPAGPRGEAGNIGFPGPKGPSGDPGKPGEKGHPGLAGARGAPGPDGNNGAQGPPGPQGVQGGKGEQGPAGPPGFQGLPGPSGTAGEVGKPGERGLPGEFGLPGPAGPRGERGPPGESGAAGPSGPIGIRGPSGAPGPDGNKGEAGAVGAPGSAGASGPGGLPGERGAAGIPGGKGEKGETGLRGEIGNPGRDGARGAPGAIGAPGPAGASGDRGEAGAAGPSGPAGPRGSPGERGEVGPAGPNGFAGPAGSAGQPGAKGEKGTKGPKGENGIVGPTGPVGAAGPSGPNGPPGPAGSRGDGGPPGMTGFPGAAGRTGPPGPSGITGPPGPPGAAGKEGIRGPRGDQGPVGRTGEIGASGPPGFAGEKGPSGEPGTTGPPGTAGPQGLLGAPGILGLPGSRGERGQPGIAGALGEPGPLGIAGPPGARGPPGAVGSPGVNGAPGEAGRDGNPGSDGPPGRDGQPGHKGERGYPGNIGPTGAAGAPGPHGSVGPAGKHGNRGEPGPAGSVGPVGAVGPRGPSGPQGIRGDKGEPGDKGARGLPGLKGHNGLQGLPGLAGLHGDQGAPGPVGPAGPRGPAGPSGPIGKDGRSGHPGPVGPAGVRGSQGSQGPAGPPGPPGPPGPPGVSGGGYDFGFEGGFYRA

density of photo-induced CMP binding to intact collagen [1]	Substance	staining of MMP-1 digested collagen bands [2]	staining of protein ladder bands [2]	staining of Scl2.28CL bands [3]	staining of fibronectin and laminin bands [4]
0.56±0.03 nmol/cm^2	CF-GGG-(GPO)4^NBGPO(GPO)4 [CF^NB(GPO)9]	able to stain the MMP-1 digested collagen bands	No other bands from the protein ladder were stained		
	CF-GGG-(GPO)9 [CF(GPO)9]			failed to stain; also recorded: almost no staining of the Scl2.28CL band	no affinity to fibronectin and laminin
